For data set [1], the target named is T1, peripheral benzodiazepine receptors (Rattus norvegicus, UniProt P16257).
T1 construct: high uptake in the tissues which have known PBR sites; from tissue; host or cells: organs of living SD rats (brain and peripheral tissues), in vivo
Put plainly: In vivo blocking / competition of tracer uptake by pre-treatment with PBR and CBR ligands. The conditions noted are these: rats; for Tracer uptake after pre-treatment with PK 11195 / Tracer uptake in the adrenals after pre-treatment with PK 11195: PK 11195 1 mg/kg 5 min prior to tracer; for Tracer uptake after pre-treatment with PK 11195 / Tracer uptake after pre-treatment with Ro 5-4864: PBR-expressing tissues (brain/peripheral organs, adrenals apart); for Tracer uptake after pre-treatment with Ro 5-4864 / Tracer uptake in the adrenals after pre-treatment with Ro 5-4864: Ro 5-4864 1 mg/kg 5 min prior to tracer; for Tracer uptake after pre-treatment with flumazenil (central benzodiazepine ligand): flumazenil 1 mg/kg 5 min prior to tracer, brain or peripheral organs; for Tracer uptake after pre-treatment with the non-radioactive analogue: non-radioactive analogue 1 mg/kg, PBR-expressing tissues. Summed up:
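SD rats received PBR ligands PK11195 or Ro 5-4864, or the CBR ligand flumazenil, at 1 mg/kg 5 min before tracer injection. Brain and peripheral tissue uptake analysed at 15, 30 min, 1 and 4 h p.i.; significance set at p<0.05 and p<0.01 versus normals or controls.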

Data set [2] concerns the target T2, peripheral benzodiazepine binding site (Rattus norvegicus, UniProt P16257).
T2 construct: diluted kidney membrane preparation (200 μg); from tissue; host or cells: kidney membrane preparation
Put plainly: In vitro binding, [3H]-PK11195, kidney membrane preparation. Particulars: PBR IC50 (nM), [3H]-PK11195 (2 nM), 4° C., 1 h. As for the experimental part:
Non-specific binding was determined with PK11195 (10 μM).
Non-specific binding was determined with Flumazenil (20 μM). In both cases, incubations were terminated by rapid filtration through Whatman GF/B glass fibre. Filters were immediately washed 3 times with 5 mL ice-cold 50 mM Tris/HCl at pH 7.4. Filters were counted in a β-scintillation counter (Packard) to measure the amount of bound radioactivity. The IC50 of the compounds for the peripheral benzodiazepine binding site and the central benzodiazepine receptor were calculated using Kell 6 software.

Data set [3] can be described thus: LogP HPLC.

By IC50 is commonly meant the point on the concentration scale where inhibition reaches its midpoint. The low end stands for higher potency, the high end for lower potency. As usually defined, the chromatographic logP is lipophilicity estimated from chromatographic retention. A lower chromatographic logP goes with a more hydrophilic compound.

Entries after “also recorded” stand apart in the source; their conditions may differ.

Take `CCN(CC)C(=O)Cc1c(-c2ccc(OCCF)cc2)nc2ccc(Cl)cn12` [PBR102, 2-(2-(4-(2-fluoroethoxy)phenyl)-6-chloroimidazo[1,2-a]pyridin-3-yl)-N,N-diethylacetamide]: in data set [1], the “Tracer uptake after pre-treatment with PK 11195” value was “decreased”, the “Tracer uptake in the adrenals after pre-treatment with PK 11195” value is “increase”, the “Tracer uptake after pre-treatment with Ro 5-4864” value is on record as “decreased” and the “Tracer uptake in the adrenals after pre-treatment with Ro 5-4864” value was “increase”. For the same compound, in data set [1], the “Tracer uptake after pre-treatment with flumazenil (central benzodiazepine ligand)” value (“Tracer uptake … (central benzodiazepine ligand)” for short) is listed as “no effect” and the “Tracer uptake after pre-treatment with the non-radioactive analogue” value is on record as “blocking effect”. Besides, in data set [1] (listed as [^18F]PBR102), the “Tracer uptake after pre-treatment with PK 11195” value is on record as “blocking effect”, the “Tracer uptake after pre-treatment with Ro 5-4864” value is “blocking effect” and the “Tracer uptake … (central benzodiazepine ligand)” value is listed as “does not reduce”. The compound also returned an IC50 in data set [2] of 13.2 nM. Also, the chromatographic logP in data set [3] came to 2.7 ± 0.09.

Take `CCN(CC)C(=O)Cc1c(-c2ccc(OCCCF)cc2)nc2ccc(Cl)cn12` [PBR111, 2-(2-(4-(3-fluoropropoxy)phenyl)-6-chloroimidazo[1,2-a]pyridin-3-yl)-N,N-diethylacetamide]: the “Tracer uptake in the olfactory regions after pre-treatment with PK 11195 and Ro 5-4864” value in data set [1] (1 mg/kg 5 min prior to tracer, olfactory regions) is “non-significant decrease”. Moreover, in data set [1], the “Tracer uptake after pre-treatment with PK 11195” value is reported as “decreased”, the “Tracer uptake in the adrenals after pre-treatment with PK 11195” value is reported as “increase”, the “Tracer uptake after pre-treatment with Ro 5-4864” value is listed as “decreased” and the “Tracer uptake in the adrenals after pre-treatment with Ro 5-4864” value is listed as “increase”. For the same compound, the “Tracer uptake … (central benzodiazepine ligand)” value in data set [1] is given as “no effect”. In addition, in data set [1] (listed as [^18F]PBR111), the “Tracer uptake after pre-treatment with PK 11195” value is “reduced uptake; also recorded: blocking effect”, the “Tracer uptake after pre-treatment with Ro 5-4864” value is “reduced uptake; also recorded: blocking effect”, the “Tracer uptake … (central benzodiazepine ligand)” value is recorded as “does not compete; also recorded: does not reduce” and the “Tracer uptake after pre-treatment with the non-radioactive analogue” value is “reduced uptake; also recorded: blocking effect”. This compound also registered an IC50 in data set [2] of 7.5 nM. In data set [3], this compound yielded a chromatographic logP of 3.2 ± 0.1.

Source of the values: US20100209345A1, “Fluorinated Ligands for Targeting Peripheral Benzodiazepine Receptors” (Australian Nuclear Science & Technology Organisation, priority 2006, published 2010).
